Results on 1 compound are retold here after ChEMBL document CHEMBL1140673, “Agonist lead identification for the high affinity niacin receptor GPR109a” (Bioorg Med Chem Lett, 2007).

The target of this experiment is Hydroxycarboxylic acid receptor 3 (Homo sapiens) (UniProt P49019). Kind of experiment: Agonist activity at human cloned GPR109b receptor at 100 uM by forskolin-stimulated cAMP production test. Type of experiment: functional.

The source made the active and inactive calls. No cut-off for these calls is given here.

Chain of Hydroxycarboxylic acid receptor 3 (Homo sapiens) (P49019 whole entry): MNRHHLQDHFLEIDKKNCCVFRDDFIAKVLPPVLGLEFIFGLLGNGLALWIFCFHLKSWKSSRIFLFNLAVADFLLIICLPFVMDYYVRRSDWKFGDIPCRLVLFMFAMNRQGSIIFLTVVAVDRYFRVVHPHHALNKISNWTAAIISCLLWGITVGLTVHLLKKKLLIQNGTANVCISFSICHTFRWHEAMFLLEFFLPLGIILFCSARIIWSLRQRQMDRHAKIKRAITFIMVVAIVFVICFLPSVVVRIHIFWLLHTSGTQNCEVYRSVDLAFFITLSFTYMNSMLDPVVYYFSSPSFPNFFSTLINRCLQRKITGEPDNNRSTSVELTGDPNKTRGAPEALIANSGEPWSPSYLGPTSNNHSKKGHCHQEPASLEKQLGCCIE

Turning to `Cc1cc(C(=O)O)n[nH]1`, the outcome was inactive.
